Test results published in patent US5707615A, “Method of treating HIV infections with anti-viral formulations” (Merrell Pharmaceuticals Inc., priority 1997, dated 1998).
Values joined by “and” are separate entries in the source; they are usually repeats but may differ in a detail not shown here. Equal entries are not always repeated.

Tests used:
influenza = conditions: cited from earlier work
HIV = conditions: cited from earlier work
[1] = system: viral protein which is responsible for cell recognition; conditions: cited from earlier work
HIV strain RF = assay: Ability to prevent virus-induced cell death using MT4 cells and strain RF (Example III); type: cell-based; conditions: MT4 cells, 7 days, MTT
Protocol: (§1) Various oligomers were dissolved in RPMI and were then assayed for anti-HIV activity by making doubling dilutions of the solutions across a 96 well microtitre plate. To each well were then added 5×10^4 cells and 100 TCID50 of virus and the plates incubated at 37° C. for 7 days. MTT was added to each well and the plates incubated for a further 2 hours. The blue formazan crystals were dissolved using acidic isopropanol, and the absorbance measured at 540 nm.

GB8 virus in JM cells = assay: Virus infection of JM cells with GB8 in the presence of test compounds: syncytia and P24 (Example II); conditions: for SYNCYTIA % / P24 %: % of control; for SYNCYTIA %: 2880 min; for P24 %: 5760 min
Protocol: Virus infection of JM cells was carried out in the presence of different concentrations of test compounds. JM cells (1×10^5) and 50-100 syncytial forming units of virus (GB8) were added to duplicate wells of a tissue culture plate containing 1 mL volumes of growth medium with or without drug. The plate was incubated for 2 days at 37° C. and then scored for the presence of syncytia. At the same time the cells were washed and the growth medium replaced. After a further two days incubation, the cell free supernatant fluids were harvested and assayed for levels of P24 viral core antigen using the Coulter™ HIV Antigen assay.

MT4 cells = assay: Toxicity to MT4 cells (TD50, Table IV, MTT); type: cell-based
Protocol: as §1

[2] = in vivo; cited from earlier work
HIV-I, GB8 = assay: Ability to prevent syncytia formation and expression of P24 viral core antigen using JM cells and GB8 virus strain (Example I); type: cell-based; conditions: for P24 % CONTROL: 4320 min; for SYNCYTIA: after 3 days
Protocol: The virus was first incubated with an oligomer for 15 minutes and then the cells were added. After 2 hours adsorption, the virus innoculum was removed and the cells were washed three times to remove traces of input virus. Antiviral activity was determined after 3 days incubation by plotting the mean number of syncytia found in quadruple cultures against log10 concentration of anionic polymer or of other test compounds. The potency of an oligomer was also measured by assaying viral core antigen (P24 test-Abbott) in the supernatant fluid. Heparin, dextran sulfate, rs CD4, ATZ and/or ddC data, when included in any of the following Tables, are provided as positive controls.

HIV-I (GB8) [3] = assay: Pretreatment of JM cells and block of HIV-I (GB8) infection (Example IV); conditions: pretreated overnight at 20 μg/mL; for MEAN SYNCYTIA: 2 days; for P24 % / SYNCYTIA %: % of control, 2880 min
Protocol: JM cells were pretreated overnight at 37° C. with different compounds at 20 μg/mL or left untreated. The cells were washed 3 times in RPMI medium and then infected with HIV-I (GB8) for 2 hours at room temperature. The cells were again washed 3 times in RPMI medium and resuspended in fresh medium prior to being distributed into duplicate wells and incubated at 37° C. After 2 days syncytia were scored and the cell free supernatant fluid harvested and assayed for P24 viral core antigen using the Coulter™ HIV antigen assay.

HIV-I (GB8) [4] = assay: Effect of treating HIV-I (GB8)-infected cells (JM) 48 hours post-infection (Example V, Table VIII); type: cell-based; conditions: for P24 / P24 % CONTROL: day 6 p.i.
HIV-I (GB8) [5] = assay: Effect of treating HIV-I (GB8)-infected cells (JM) 24 hours post-infection (Example V, Table VI); type: cell-based; conditions: for P24 % CONTROL: 8640 min
HIV-I (RF) = assay: Effect of treating HIV-I (RF)-infected cells (C8166) 24 hours post-infection (Example V, Table VII); conditions: for P24 % CONTROL: 8640 min
Protocol: Cells were infected with strain RF or GB8 for 24 hours at 37° C. at a multiplicity of infection of 0.001. Cells were washed three times to remove residual virus and then replated into fresh growth medium. Cells were then treated for 24 and 48 hours post-infection (p.i.) with the indicated concentrations of test compounds. Syncytia and P24 antigen levels were determined on the indicated days p.i. by methods described before.

[6] = 1.2 μM, addition 0 hours p.i., single wells
[7] = 0.31 μM, addition 24 hours p.i.
[8] = 0.62 μM, addition 24 hours p.i.
[9] = 1.25 μM, addition 24 hours p.i.

## 2-deoxy-2-fluoroglucose
influenza
  viral protein glycosylation: inhibited viral protein glycosylation

## O=CC[C@@H](O)[C@H](O)[C@H](O)CO [2-deoxy-D-glucose]
influenza
  viral protein glycosylation: inhibited viral protein glycosylation
HIV
  expression of HIV glycoproteins and formation of syncytia: inhibit expression of HIV glycoproteins and block the formation of syncytia

## CCC(O)[C@H](N)C(=O)O (stereo partly drawn) [β-hydroxy-norvaline]
HIV
  expression of HIV glycoproteins and formation of syncytia: inhibit expression of HIV glycoproteins and block the formation of syncytia

## Heparin [reference compound]
[1]
  inhibition of host cell infection: limited inhibition of host cell infection
HIV strain RF
  ED50: 4.6 µg/mL
GB8 virus in JM cells; Table II, 0.01 μg/mL
  SYNCYTIA (2 DAYS) MEAN: 38
  SYNCYTIA %: 90%
GB8 virus in JM cells; Table II, 0.03 μg/mL
  SYNCYTIA (2 DAYS) MEAN: 29
  SYNCYTIA %: 69%
GB8 virus in JM cells; Table II, 0.1 μg/mL
  SYNCYTIA (2 DAYS) MEAN: 24
  SYNCYTIA %: 57%
GB8 virus in JM cells; Table II, 0.3 μg/mL
  P24: 4.1 × 10^4 units/mL
  SYNCYTIA (2 DAYS) MEAN: 22
  SYNCYTIA %: 52%
  P24 %: 11%
GB8 virus in JM cells; Table II, 1 μg/mL
  SYNCYTIA (2 DAYS) MEAN: 2
  SYNCYTIA %: 5%
  P24 %: 8%
GB8 virus in JM cells; Table II, 3 μg/mL
  P24: 1.7 × 10^4 units/mL
  SYNCYTIA (2 DAYS) MEAN: 0
  SYNCYTIA %: 0%
  P24 %: 5%
GB8 virus in JM cells; Table II, 10 μg/mL
  SYNCYTIA (2 DAYS) MEAN: 0
  SYNCYTIA %: 0%
  P24 %: 3%
GB8 virus in JM cells; Table III, 1 μg/mL
  P24: 211000 pg/mL
  SYNCYTIA MEAN: 13
  SYNCYTIA %: 19%
  P24 %: 63%
GB8 virus in JM cells; Table III, 10 μg/mL
  P24: 70700 pg/mL
  SYNCYTIA MEAN: 0
  P24 %: 21%
GB8 virus in JM cells; Table III, 100 μg/mL
  P24: 989 pg/mL
  SYNCYTIA MEAN: 0
  P24 %: 0.3%
MT4 cells; human, mt4 cells, 168 h
  TD50: > 100 µg/mL
[2]
  side effects: hemorrhage and increased clot formation time as well as thrombocytopenia
HIV-I, GB8; 0.6 μg/mL
  P24: 44570 pg/mL
  P24 % CONTROL: 0.1%
HIV-I, GB8; 2.5 μg/mL
  P24: 25775 pg/mL
  P24 % CONTROL: < 0.1%
HIV-I, GB8; 5.0 μg/mL
  P24: 2500 pg/mL
  P24 % CONTROL: < 0.1%
  SYNCYTIA: 0
HIV-I (GB8) [3]
  P24: 29090 pg/mL
  MEAN SYNCYTIA: 136
  P24 %: 103%
  SYNCYTIA %: 114%

## poly{imino[2,2'-disulfo(1,1'-biphenyl)-4,4'-diyl]iminocarbonyl}, alpha-{[(4-methylphenyl)amino]carbonyl}-omega[(4-methylphenyl)amino]- [Example 1A]
HIV strain RF; 10080 min
  ED50: 1.6 µg/mL
HIV-I (GB8) [4]; 1.2 μM, addition 0 hours p.i.
  P24: 450 pg/mL
  P24 % CONTROL: 0.41%
HIV-I (GB8) [4]; [6]
  SYNCYTIA/WELL DAY 3 p.i.: 0 SYNCYTIA/WELL
  SYNCYTIA/WELL DAY 6 p.i.: 0 SYNCYTIA/WELL
HIV-I (GB8) [4]; 1.2 μM, addition 48 hours p.i.
  P24: 21000 pg/mL
  P24 % CONTROL: 19.0%
HIV-I (GB8) [4]; 1.2 μM, addition 48 hours p.i., single wells
  SYNCYTIA/WELL DAY 3 p.i.: 19 SYNCYTIA/WELL and 10 SYNCYTIA/WELL and 12 SYNCYTIA/WELL
HIV-I (GB8) [4]; summary of studies
  effect on cells having preestablished infections: cleared cultures of syncytia, stabilized the infection and reduced virus antigen levels
GB8 virus in JM cells; Table II, 0.01 μg/mL
  SYNCYTIA (2 DAYS) MEAN: 60
  SYNCYTIA %: 143%
GB8 virus in JM cells; Table II, 0.03 μg/mL
  P24: 4.3 × 10^5 units/mL
  SYNCYTIA (2 DAYS) MEAN: 52
  SYNCYTIA %: 123%
  P24 %: 100%
GB8 virus in JM cells; Table II, 0.1 μg/mL
  P24: 4.0 × 10^5 units/mL
  SYNCYTIA (2 DAYS) MEAN: 25
  SYNCYTIA %: 58%
  P24 %: 100%
GB8 virus in JM cells; Table II, 0.3 μg/mL
  P24: 4.0 × 10^4 units/mL
  SYNCYTIA (2 DAYS) MEAN: 14
  SYNCYTIA %: 33%
  P24 %: 11%
GB8 virus in JM cells; Table II, 1 μg/mL
  P24: 9.1 × 10^3 units/mL
  SYNCYTIA (2 DAYS) MEAN: 0
  SYNCYTIA %: 0%
  P24 %: 3%
GB8 virus in JM cells; Table II, 3 μg/mL
  SYNCYTIA (2 DAYS) MEAN: 0
  SYNCYTIA %: 0%
GB8 virus in JM cells; Table II, 10 μg/mL
  SYNCYTIA (2 DAYS) MEAN: 0
  SYNCYTIA %: 0%
HIV-I (GB8) [5]; [7]
  P24 DAY 6 p.i.: 165000 pg/mL
  SYNCYTIA/WELL DAY 3 p.i.: > 50 SYNCYTIA/WELL
  P24 % CONTROL: 16.0%
HIV-I (GB8) [5]; [8]
  P24 DAY 6 p.i.: 56000 pg/mL
  SYNCYTIA/WELL DAY 3 p.i.: < 20 SYNCYTIA/WELL
  P24 % CONTROL: 5.4%
HIV-I (GB8) [5]; 1.2 μM, addition 24 hours p.i.
  P24 DAY 6 p.i.: 15000 pg/mL
  SYNCYTIA/WELL DAY 3 p.i.: < 10 SYNCYTIA/WELL
  P24 % CONTROL: 1.5%
HIV-I (GB8) [5]; 2.5 μM, addition 0 hours p.i.
  P24 DAY 6 p.i.: 420 pg/mL
  SYNCYTIA/WELL DAY 3 p.i.: 0 SYNCYTIA/WELL
  P24 % CONTROL: 0.04%
HIV-I (GB8) [5]; 2.5 μM, addition 24 hours p.i.
  P24 DAY 6 p.i.: 12100 pg/mL
  SYNCYTIA/WELL DAY 3 p.i.: 0 SYNCYTIA/WELL
  P24 % CONTROL: 1.2%
MT4 cells; MT4 cells, 7 days, MTT
  TD50: > 100 µg/mL
HIV-I (RF); [8]
  P24 DAY 6 p.i.: 700000 pg/mL
  P24 % CONTROL: 74%
HIV-I (RF); [9]
  P24 DAY 6 p.i.: 1.5e+06 pg/mL
  SYNCYTIA/WELL DAY 2: 0
  P24 % CONTROL: 100%
HIV-I (RF); 2.5 μM, addition 24 hours p.i.
  SYNCYTIA/WELL DAY 2: 0
  SYNCYTIA/WELL DAY 3: 0
  P24 % CONTROL: 10.2%
HIV-I (RF); 5 μM, addition 24 hours p.i.
  P24 DAY 6 p.i.: 9300 pg/mL
  SYNCYTIA/WELL DAY 2: 0
  SYNCYTIA/WELL DAY 3: 0
  P24 % CONTROL: 1.0%
HIV-I (RF); 10 μM, addition 0 hours p.i.
  P24 DAY 6 p.i.: 16000 pg/mL
  SYNCYTIA/WELL DAY 2: 0
  SYNCYTIA/WELL DAY 3: 0
  P24 % CONTROL: 1.7%
HIV-I (RF); 10 μM, addition 24 hours p.i.
  P24 DAY 6 p.i.: 9200 pg/mL
  SYNCYTIA/WELL DAY 2: 0
  SYNCYTIA/WELL DAY 3: 0
  P24 % CONTROL: 1.0%
HIV-I, GB8; 0.6 μg/mL
  P24: 37355 pg/mL
  P24 % CONTROL: 0.13%
HIV-I, GB8; 1.25 μg/mL
  P24: 541 pg/mL
  P24 % CONTROL: < 0.1%
  SYNCYTIA: 0
HIV-I, GB8; 2.5 μg/mL
  P24: 96 pg/mL
  P24 % CONTROL: < 0.1%
  SYNCYTIA: 0
HIV-I, GB8; 5.0 μg/mL
  SYNCYTIA: 0
HIV-I (GB8) [3]
  P24: 2623 pg/mL
  MEAN SYNCYTIA: 14
  P24 %: 9%
  SYNCYTIA %: 12%
